The values that follow come from ChEMBL document CHEMBL5042549, “Discovery of Inhibitors of the Lipopolysaccharide Transporter MsbA: From a Screening Hit to Potent Wild-Type Gram-Negative Activity” (J Med Chem, 2022).

As usually defined, the MIC is the lowest concentration that inhibits growth of the organism. A word on the IC50: it is the point on the concentration scale where inhibition reaches its midpoint. Read a high IC50 as weaker potency in that assay. What is called logD is the decadic logarithm of the distribution of all forms, ionised or not, between an organic phase and buffer at a given pH. Low values mean a more hydrophilic compound, high ones a more lipophilic compound. Broadly, the half-life is the time needed for the level to fall by half in the phase considered. Low values mean rapid decline, high ones slow decline. The clearance is a measure of how efficiently the substance is removed, as volume per time.

Series [1] concerns Escherichia coli. The experiment in a line: Antibacterial activity against wild type Escherichia coli CFT073 (ATCC 700928) assessed as bacterial growth by broth microdilution assay. Format: functional.
In series [2] the test system is Escherichia coli. Put plainly: Antibacterial activity against wild type Escherichia coli MG1655 msbA-cKO lptD (imp4213) expressing Escherichia coli MsbA assessed as bacterial growth inhibition by broth microdilution assay. Type of series: functional. For orientation: Broth dilution looks for growth in wells or tubes with falling amounts of substance.
The test system of a further series is Jurkat. Put plainly: Cytotoxicity against human Jurkat cells at 50 uM. Type of series: toxicity, cell-based.
Series [3] has as its system Escherichia coli. The experiment in a line: Antibacterial activity against wild type Escherichia coli MG1655 msbA-cKO lptD (imp4213) expressing Acinetobacter baumannii MsbA assessed as bacterial growth inhibition by broth microdilution assay. Type of series: functional.
Series [4] deals with Escherichia coli. The experiment in a line: Selectivity ratio of MIC for Escherichia coli MG1655 msbA-cKO lptD (imp4213) […]. Format: functional.
Another series concerns HEK293. Put plainly: Cytotoxicity against human HEK293 cells at 50 uM. The conditions noted are these: hek293, 50 µM. Type of series: toxicity, cell-based.
The subject of series [5] is Klebsiella pneumoniae. The experiment in a line: Antibacterial activity against wild type Klebsiella pneumoniae MGH78578 (ATCC 700721) assessed as bacterial growth inhibition by broth microdilution assay. Type of series: functional.
Another series deals with A549. Put plainly: Cytotoxicity against human A549 cells at 50 uM. Type of series: toxicity, cell-based. The conditions noted are these: a549, 50 µM.
Series [6] can be described thus: Inhibition of Escherichia coli MsbA preincubated for 10 mins followed by ATP addition and incubated for 1 hr by fluorescence polarization assay. A general note: In fluorescence polarisation assays a small probe gives low polarisation when free and higher when bound to something large.
For series [7], the system named is Enterobacter cloacae. The experiment in a line: Antibacterial activity against wild type Enterobacter cloacae (ATCC 13047) assessed as bacterial growth inhibition by broth microdilution assay. Format: functional.
Series [8] can be described thus: Lipophilicity, logD of compound by shake flask method. Format: physicochemical. The conditions noted are these: octanol/water.
Series [9] can be described thus: Half life in CD-1 mouse at 1 mg/kg, iv measured upto 8 hrs by LC-MS/MS analysis. Format: ADME, organism-based. The conditions noted are these: in vivo.
The test system of series [10] is Escherichia coli. The experiment in a line: Antibacterial activity against wild type Escherichia coli CFT073 (ATCC 700928) assessed as induction of cell lysis at 50 microM by electron microscopy. Type of series: functional, organism-based.
Series [11] relates to Klebsiella pneumoniae. Put plainly: Antibacterial activity against wild type Klebsiella pneumoniae MGH78578 (ATCC 700721) assessed as membrane stacking at 50 microM by electron microscopy. Format: functional, organism-based.
Series [12] relates to Enterobacter cloacae. Put plainly: Antibacterial activity against wild type Enterobacter cloacae (ATCC 13047) assessed as membrane stacking at 50 microM by electron microscopy. Type of series: functional, organism-based.
Series [13] can be described thus: Clearance in CD-1 mouse at 1 mg/kg, iv measured upto 8 hrs by LC-MS/MS analysis. Type of series: ADME, organism-based. The conditions noted are these: in vivo.
A further series relates to Pseudomonas aeruginosa. The experiment in a line: Antibacterial activity against wild type Pseudomonas aeruginosa PA14 assessed as bacterial growth inhibition by broth microdilution assay. Type of series: functional.
Another series concerns Acinetobacter baumannii. Put plainly: Antibacterial activity against wild type Acinetobacter baumannii (ATCC 17978) assessed as bacterial growth inhibition by broth microdilution assay. Type of series: functional.

SMILES strings stand for the structures. Converted amounts (≈) assume the structure as drawn. “And” between values parts separate entries of the source, which are not always exact repeats. Identical values can stand only once. The source made the active and inactive calls. Bounds are passed on as bounds.

Take `C[C@H](Oc1ccc2ncc(/C=C/c3nn[nH]n3)c(C3CC3)c2c1)c1c(Cl)cccc1Cl`: the MIC with Escherichia coli [1] was 12 µM; in the series with Escherichia coli [2], less than 0.1 µM; with Escherichia coli [3] it was 50 µM (≈ 22.6 µg/mL); in the series with Klebsiella pneumoniae [5] it was 12 µM (≈ 5.43 µg/mL); in the series on Enterobacter cloacae [7] it was 25 µM (≈ 11.3 µg/mL). Moreover, the Activity entry with Jurkat, in the series on HEK293 and with A549 was “Non-Toxic” in each case. For the same compound, the Selectivity ratio in the series on Escherichia coli [4] is greater than 500. Half-maximal inhibition in series [6] (IC50) was put at 2 nM. In series [8], this compound registered a logD of 4.3.
With `C[C@H](Oc1ccc2ncc(/C=C/c3nn[nH]n3)c(C(F)F)c2c1)c1c(Cl)cccc1Cl`, the MIC in the series on Escherichia coli [1] is 25 µM; with Escherichia coli [2], 1.6 µM (≈ 0.74 µg/mL); in the series on Escherichia coli [3] it was 50 µM (≈ 23.1 µg/mL); in the series on Klebsiella pneumoniae [5], 25 µM (≈ 11.6 µg/mL); in the series with Enterobacter cloacae [7], 50 µM (≈ 23.1 µg/mL). The Activity result in the series with Jurkat, in the series on HEK293 and in the series on A549 was “Non-Toxic” throughout. Besides, the Selectivity ratio in the series on Escherichia coli [4] was determined as 31. Moreover, the midpoint of inhibition in series [6], the IC50, lay at 8 nM. In addition, in series [8], the logD amounted to 3.3.
Turning to `C[C@H](Oc1ccc2ccc(/C=C/c3nn[nH]n3)c(C3CC3)c2c1)c1c(Cl)cccc1Cl`, the MIC with Escherichia coli [1] was 6 µM and 2.7 µg/mL; in the series on Escherichia coli [2], 0.8 µM (≈ 0.361 µg/mL); with Escherichia coli [3] it was greater than 71 µM; with Pseudomonas aeruginosa it was greater than 100 µM; in the series with Klebsiella pneumoniae [5], 6 µM (≈ 2.71 µg/mL); in the series with Acinetobacter baumannii, greater than 100 µM. Moreover, the MIC in the series with Enterobacter cloacae [7] is 6 µM (≈ 2.71 µg/mL). In series [9], this compound showed a half-life of 84 min. The result with Escherichia coli [10], with Klebsiella pneumoniae [11] and in the series on Enterobacter cloacae [12] was Active. Also, the clearance in [13] was 8 mL/min/kg. Also, the Selectivity ratio in the series on Escherichia coli [4] is greater than 89. Also, the midpoint of inhibition in [6], the IC50, lay at 3 nM. The log distribution coefficient (logD) in series [8] stood at 4.3.
